# Results taken from patent publication US20180011102A1, “THE PROTEIN KINASE ACTIVITY OF PHOSPHOGLYCERATE KINASE 1 AS A TARGET FOR CANCER TREATMENT AND DIAGNOSIS” (Board of Regents, The University of Texas System, priority 2015, published 2018).
# Legend:
# ERK1/2 = assay: Immunoblotting of hypoxia-induced ERK1/2 phosphorylation/activation in U87 cells; type: cell-based, human
# Method: (§1) FIGS. 10A-I. Mitochondrial Translocation of PGK1 is depended on ERK1/2-mediated PGK1 Phosphorylation. FIG. 10A. […] Immunoblotting analyses were performed with the indicated antibodies. FIG. 10B. […] Immunoblotting analyses were performed with the indicated antibodies. FIG. 10C. […] Immunofluorescence analyses were carried out using an anti-PGK1 antibody, MitoTracker, and DAPI. FIG. 10D. U87 cells stably transfected with a vector or Flag-ERK2 K52R were treated with or without hypoxia for 6 h. Mitochondria fractions and total cell lysates were prepared. FIG. 10E. U87 cells were stably transfected with or without vectors expressing HA-MEK1 Q56P with the indicated Flag-ERK2 proteins. Mitochondria fractions and total cell lysates were prepared. Immunoblotting analyses were performed with the indicated antibodies. FIG. 10F. U87 cells were treated with or without hypoxia for 6 h. […] FIG. 10G. Immobilized GST or GST-PGK1 protein was incubated with purified recombinant His-ERK2. Immunoblotting analyses were performed with the indicated antibodies. FIG. 10H. […] Immunoblotting analyses were performed with the indicated antibodies. FIG. 10I. […] Immunoblotting analyses were performed with the indicated antibodies.
# FIGS. 11A-J. ERK1/2-mediated PGK1 S203 Phosphorylation Is Required for Mitochondrial Translocation of PGK1. […] The images were quantified by scanning densitometry. […]
# PGK1 S203 = assay: Hypoxia-induced PGK1 S203 phosphorylation in U87 cells (streptavidin pull-down / immunoblotting); type: cell-based, human
# Method: (§2) FIG. 1B. […] FIG. 1C. […] Arrows indicate representative staining of mitochondrial PGK1. Dashed circles indicate mitochondria. FIG. 1D. […] Tubulin was used as a cytosolic protein marker. FIG. 1E. […] Mitochondria fractions and total cell lysates were prepared. FIG. 1F. […] Mitochondria fractions and total cell lysates were prepared. FIG. 1G. […] FIG. 1H. […] FIG. 1I. […] Mitochondrial fractions and total cell lysates were prepared.
# FIGS. 11A-J. ERK1/2-mediated PGK1 S203 Phosphorylation Is Required for Mitochondrial Translocation of PGK1. Immunofluorescence, immunoprecipitation, and immunoblotting analyses were performed with the indicated antibodies. FIG. 11A. U87 cells stimulated with or without hypoxia for 6 h were stained with the indicated antibody, MitoTracker, and DAPI. FIG. 11B. […] FIG. 11C. U87 cells were stably transfected with or without vectors expressing HA-MEK1 Q56P with the indicated Flag-ERK2 proteins. Total cell lysates were prepared. FIG. 11D. […] FIG. 11E. Anti-PGK1 pS203 antibody was used to deplete the phosphorylated PGK1 from total cell lysates prepared from U87 cells treated with or without hypoxia for 6 h. The images were quantified by scanning densitometry. […] FIG. 11H. […] FIG. 11I. […] Mitochondria fractions and total cell lysates were prepared. FIG. 11J.
# Streptavidin or glutathione agarose beads were incubated with cell lysate (1 mg/ml) or purified protein for 12 h. […]
# PGK1 [1] = assay: Hypoxia-induced mitochondrial translocation of PGK1 (mitochondrial fractionation, immunoblotting, immunofluorescence); type: cell-based, human
# Method: as §2
# FIGS. 9A-E. Hypoxia Induces Mitochondrial Translocation of PGK1. FIG. 9A. Total cell lysate, cytosolic, and mitochondrial fractions were prepared from U87 and U251 cells stimulated with or without hypoxia for 6 h. Immunoblotting analyses were performed with the indicated antibodies. Hypoxia-induced HIF1α expression (left panel) was a control for hypoxic stimulation. WCL: whole-cell lysate; Cyto: cytosol; Mito: mitochondria. WB, Western blot. FIG. 9B. Cytosolic and mitochondrial fractions were prepared from U87 and U251 cells stimulated with hypoxia for 6 h. Immunoblotting analyses of equal percentages of cytosolic and mitochondrial fraction were performed with the indicated antibodies. WCL: whole-cell lysate; Cyto: cytosol; Mito: mitochondria. Immunoblotting analyses were performed with the indicated antibodies. The images were quantified by scanning densitometry. FIG. 9C. U87 cells transfected with HIF1α siRNA or a scrambled siRNA before hypoxia stimulation for 6 h. […]
# EGFR = assay: Immunoblotting of hypoxia-induced EGFR phosphorylation in U87 cells; type: cell-based, human; conditions: AG1478 100 nM for 30 min before hypoxia 6 h
# PGK1 [2] = assay: Determining KM of PGK1 (PGK1-dependent PDHK phosphorylation, Lineweaver-Burke plot); type: biochemical, human; conditions: purified recombinant WT PGK1, Sumo-PDHK1, 37° C., means ±SD of three experiments; read-out: Km of ATP for PGK1-dependent PDHK phosphorylation
# Method: FIGS. 14A-P. Mitochondrial PGK1 Phosphorylates PDHK1 at T338. FIG. 14A. […] Immunoblotting analyses were performed with the indicated antibodies. FIG. 14B. U87 cells (left panel) or U87/EGFR (right panel) cells expressing PGK1 shRNA with or without reconstituted expression of WT rPGK1 and the indicated mutants were stimulated with or without hypoxia for 6 h (left panel) or EGF (100 ng/ml) (right panel) for 6 h. These cells were incubated with [1-^14C]-pyruvate for 2 h. [1-^14C]CO2 production rates were measured. FIG. 14C. U87 cells expressing SFB-PDHK1, SFB-PDHK2, SFB-PDHK3, or SFB-PDHK4 were stimulated with or without hypoxia for 6 h. Mitochondrial fractions of these cells were prepared. […] ATP concentrations in mitoplast isolated from U87 or U251 cells treated with or without hypoxia for 6 h were measured. […] The glycolytic activities of bacterially purified WT PGK1, PGK1 T378P, PGK1 S203A, and PGK1 R39/K41A were measured. […]
# Purified recombinant WT PGK1 (0.2 ng) was incubated in 100 μl of reaction buffer (50 mM Tris-HCl [pH 7.5], 600 ng/μl Sumo-PDHK1, 5 mM MgSO4, 1 mM Na3VO4, 1 mM DTT, 1.8 mM phosphorenolpyruvate, 7 units pyruvate kinase, 10 units lactic dehydrogenase, 0.01 mM NADH) with indicated ATP concentration at 37° C. in 96-well plate and were read by multidetection microplate readers (BMG LABTECH, Cary, N.C.) at 339 nm in kinetic mode for 5 min. […]
# U87 cells = assay: Cell proliferation assay under hypoxia; type: cell-based, human; conditions: PGK1-depleted U87 cells reconstituted with WT PGK1 or PGK1 R39/K41A, DTT 1 mM, hypoxia 4 days
# Method: FIGS. 17A-H. Mitochondrial PGK1-Dependent PDHK1 Phosphorylation Promotes Cell Proliferation and Brain Tumorigenesis. FIGS. 17A-C. Data represent the means ±SD of three independent experiments. FIG. 17A. A total of 2×10^5 U251 cells with or without PGK1 shRNA (left panel) or PDHK1 shRNA (right panel) expression and with or without reconstituted expression of their WT counterparts and the indicated mutants were plated for 4 days under hypoxic conditions. The cells were then collected and counted. FIG. 17B. A total of 2×10^5 endogenous PGK1-depleted U87 cells with reconstituted expression of WT rPGK1 or rPGK1 R39/K41A were plated and treated with or without DTT (1 mM) during hypoxia for 4 days. The cells were then collected and counted. FIG. 17C. Mitochondria fractions and total cell lysates from endogenous PGK1-depleted U87/EGFRvIII cells with reconstituted expression of WT rPGK1 or rPGK1 S203A were prepared. […] The indicated U87/EGFRvIII cells (2×10^5) were plated for 3 days and were counted (right panel). […] The cells were then collected and counted. #p<0.05. […] Tumor volume was calculated using length a and width b: V=ab^2/2. […] Ki67-positive cells were quantified in 10 microscope fields. […] Apoptotic cells were quantified in 10 microscope fields.
# A total of […] cells were plated and counted at 4 days after seeding in DMEM with 10% dialyzed bovine calf serum during hypoxia. […]
# MAPK/APK2 = assay: Immunoblotting of hypoxia-induced MAPK/APK2 phosphorylation in U87 cells; type: cell-based, human; conditions: pretreated with SB203580 10 μM for 30 min, hypoxia 6 h
# Method: as §1
# PIN1 and PGK1 = conditions: U87 cells, U0126 20 μM for 30 min before hypoxia 6 h
# Method: FIGS. 2A-F and H-I. Immunoblotting and immunoprecipitation analyses were carried out using antibodies against the indicated proteins. FIG. 2A U87 cells were pretreated with or without U0126 (20 μM) for 30 min before hypoxic stimulation for 6 h. […] U87 cells were treated with or without hypoxic stimulation for 6 h. A GST pull-down assay with the indicted GST-proteins was performed. […] U87 cells expressing the indicated PGK1 proteins were treated with or without hypoxic stimulation for 6 h.
# PGK1 [3] = conditions: U87/EGFR cells, U0126 20 μM for 30 min, EGF 100 ng/ml 6 h
# Method: EGFR-overxpressed U87 (U87/EGFR) cells pretreated with U0126 (20 μM) for 30 min were stimulated with or without EGF (100 ng/ml) for 6 h. Mitochondria fractions and total cell lysates were prepared.
# U87, U87/EGFR, and U251 human GBM cells, BxPC-3 human pancreatic cancer cells, CHL1 human melanoma cells, and mouse embryo fibroblast (MEF) cells were maintained in Dulbecco's modified Eagle's medium (DMEM) supplemented with 10% dialyzed bovine calf serum without pyruvate (HyClone, Logan, Utah). […] For EGF treatments, cell cultures were made quiescent by growing them to confluence, and the medium was replaced with fresh medium containing 0.5% serum for 1 day. EGF at a final concentration of 100 ng/ml was used for cell stimulation.
# Mitochondrial and cytosolic fractions were isolated using a mitochondria/cytosol fractionation kit from BioVision (Mountain View, Calif.). Mitochondrial proteins and cytosolic proteins were used in immunoblotting analyses.
# [4] = U87 cells, AG1478 100 nM for 30 min before hypoxia 6 h
structure (smiles),measurement,setting,value
COc1cc2ncnc(Nc3cccc(Cl)c3)c2cc1OC [AG1478],hypoxia-induced ERK activation,ERK1/2; AG1478 100 nM for 30 min before hypoxia 6 h,blocked
same,hypoxia-induced phosphorylation of PGK1,PGK1 S203; [4],blocked
same,hypoxia-induced mitochondrial translocation of PGK1,PGK1 [1]; [4],blocked
same,hypoxia-induced EGFR phosphorylation,EGFR,blocked
"Nc1ncnc2c1ncn2[C@@H]1O[C@H](COP(=O)(O)OP(=O)(O)OP(=O)(O)O)[C@@H](O)[C@H]1O [ATP, adenosine triphosphate]",Km,PGK1 [2],560 ± 53 µM
O[C@@H](CS)[C@@H](O)CS [DTT],hypoxia-induced growth suppression,U87 cells,partially rescued
C[S+]([O-])c1ccc(-c2nc(-c3ccncc3)c(-c3ccc(F)cc3)[nH]2)cc1 (stereo not drawn) [SB203580],hypoxia-induced phosphorylation of MAPK/APK2,MAPK/APK2,blocked
N#CC(=C(/N)Sc1ccccc1N)/C(C#N)=C(\N)Sc1ccccc1N [U0126],hypoxia-induced phosphorylation of ERK1/2,"ERK1/2; pretreated with U0126 20 μM for 30 min, hypoxia 6 h",blocked
same,hypoxia-induced PGK1 S203 phosphorylation,"PGK1 S203; U87 cells expressing SFB-tagged PGK1, U0126 20 μM or SP600125 25 μM for 30 min before hypoxia 6 h",abolished
same,hypoxia-increased interaction between endogenous PIN1 and PGK1,PIN1 and PGK1,blocked
same,EGF-induced mitochondrial translocation of PGK1,PGK1 [3],blocked
same,hypoxia-induced mitochondrial translocation of PGK1,"PGK1 [1]; U87 and U251 cells, U0126 20 μM for 30 min before hypoxia 6 h",notably reduced
